Assay results as given in patent US20100063008A1, “GELATINOUS ELASTOMER COMPOSITIONS” (Silipos, Inc., priority 2008, published 2010).

Columns and labels:
[1] = Total weight of exudate (oil) absorbed by filter paper blotter discs and theoretical amount of each ingredient exuded; format: physicochemical
Description: (§1) Exposure Conditions: 37-40 deg. C., Sample filter paper discs in contact with gel specimens of same diameter were stacked in […]. aluminum petri dishes, gel specimen diameter 2.625″×0.125″ thick, filter paper disc diameter 2.625″ with another petri dish and a 1 kg dead weight on top of stack. Pressure calculated at ˜0.407 psi. (2.8 Mpa) constant. Two replicates per test condition. Repeat exposures at 3 hours then repeat three exposures of 18 hours each, changing discs but keeping same gel specimen and same side of each gel specimen in contact with each successive filter paper disc sample.
Data was calculated to determine the total weight of exudate absorbed by each individual sample filter paper blotter disc test specimen. Calculations were then performed based upon the ratios of ingredients in the gel disc formula to determine the theoretical amount of each ingredient that could have been exuded from the oil if the oil contained the same ratio of ingredients as contained in the control oil sample and in the gel.

[2] = Exudation of active agents from gel specimens to filter paper discs, quantified by UV, MS, GC and/or HPLC after extraction; format: physicochemical; conditions: for Active Agent Transferred from Gel to Filters: 37° C., 0.40 psi; for Total Active Agent Exuded from Gel: cumulative
Description: Sample filter paper discs were placed in contact with gel specimens of same diameter under constant low pressure (0.40 psi. (2.8 Mpa)) at 37° C. Multiple time-controlled exposures of the filter paper to the gel were preformed in succession to same side of gel. Quantification of active agent transferred to the filter paper discs was determined by UV, MS, GC and or HPLC analysis after extraction of active agent from the filter paper. Exudation rates was expressed as μg/unit time per unit surface area.
This compound was then divided into three aliquots' of approximately 10 grams each and poured into a 2.625″ diameter aluminum petri dish and allowed to cool to create individual gel samle discs. Subsequently, absorbent cellulose filter blotter paper was die cut to enough 2.625″ diameter discs to be employed as a wicking media for repeated exposure in direct contact with the gel compound under specific conditions as follows.
as §1
The filter paper disc specimens aa through kk were then sent to an analytical laboratory for HPLC and GC analysis along with a small sample of each individual raw ingredient so that the HPLC and GC equipment could be calibrated for the protocol being employed by the lab. This calibration allowed for determining the maximum recoverable (measurable) amount of each ingredient that could be measured using these techniques and would later be used to correct the data. The analytical laboratory then detected and measured the amount of each of the added active agents that was flushed out of the filter paper discs using wet chemistry techniques known to those skilled in the art.
The analytical data was interpreted, and the amounts of each ingredient which was exuded into each filter paper blotter disc specimen, and subsequently extracted using wet chemistry, were then entered into a data analysis spreadsheet and adjusted based on the Analytical Recovery Rate to determine actual concentration of each ingredient extracted.

[3] = Gel Specimen Number 1, 1 h filter exposure, time 0-1 h
[4] = Gel Specimen Number 1, 3 h filter exposure, time 1-4 h
[5] = Gel Specimen Number 1, 18 h filter exposure, time 4-22 h
[6] = Gel Specimen Number 1, 18 h filter exposure, time 22-40 h
[7] = Gel Specimen Number 1, 18 h filter exposure, time 40-58 h
[8] = Gel Specimen Number 1, Time 1 h
[9] = Gel Specimen Number 1, Time 4 h
[10] = Gel Specimen Number 1, Time 22 h
[11] = Gel Specimen Number 1, Time 40 h
[12] = Gel Specimen Number 1, Time 58 h
[13] = Gel Specimen Number 2, 1 h filter exposure, time 0-1 h
[14] = Gel Specimen Number 2, 3 h filter exposure, time 1-4 h
[15] = Gel Specimen Number 2, 18 h filter exposure, time 4-22 h
[16] = Gel Specimen Number 2, 18 h filter exposure, time 22-40 h
[17] = Gel Specimen Number 2, 18 h filter exposure, time 40-58 h
[18] = Gel Specimen Number 2, Time 1 h
[19] = Gel Specimen Number 2, Time 4 h
[20] = Gel Specimen Number 2, Time 22 h
[21] = Gel Specimen Number 2, Time 40 h
[22] = Gel Specimen Number 2, Time 58 h
[23] = Specimen aa, Hours 1, Cummulative Hours 1
[24] = Specimen bb, Hours 1, Cummulative Hours 1
[25] = Specimen cc, Hours 3, Cummulative Hours 4
[26] = Specimen dd, Hours 3, Cummulative Hours 4
[27] = Specimen ee, Hours 18, Cummulative Hours 22
[28] = Specimen ff, Hours 18, Cummulative Hours 22
[29] = Specimen gg, Hours 18, Cummulative Hours 40
[30] = Specimen hh, Hours 18, Cummulative Hours 40
[31] = Specimen ii, Hours 18, Cummulative Hours 58
[32] = Specimen kk, Hours 18, Cummulative Hours 58

Row | Active Agent Transferred from Gel to Filters [2, 3] [μg per filter] | Active Agent Transferred from Gel to Filters [2, 4] [μg per filter] | Active Agent Transferred from Gel to Filters [2, 5] [μg per filter] | Active Agent Transferred from Gel to Filters [2, 6] [μg per filter] | Active Agent Transferred from Gel to Filters [2, 7] [μg per filter] | Total Active Agent Exuded from Gel [2, 8] [µg] | Total Active Agent Exuded from Gel [2, 9] [µg] | Total Active Agent Exuded from Gel [2, 10] [µg] | Total Active Agent Exuded from Gel [2, 11] [µg] | Total Active Agent Exuded from Gel [2, 12] [µg] | Active Agent Transferred from Gel to Filters [2, 13] [μg per filter] | Active Agent Transferred from Gel to Filters [2, 14] [μg per filter] | Active Agent Transferred from Gel to Filters [2, 15] [μg per filter] | Active Agent Transferred from Gel to Filters [2, 16] [μg per filter] | Active Agent Transferred from Gel to Filters [2, 17] [μg per filter] | Total Active Agent Exuded from Gel [2, 18] [µg] | Total Active Agent Exuded from Gel [2, 19] [µg] | Total Active Agent Exuded from Gel [2, 20] [µg] | Total Active Agent Exuded from Gel [2, 21] [µg] | Total Active Agent Exuded from Gel [2, 22] [µg] | Compound | further results
1 | 841 | 977 | 1955 | 1682 | 916 | 841 | 1818 | 3773 | 5455 | 6370 | 1159 | 1284 | 1864 | 1307 | 1523 | 1159 | 2443 | 4307 | 5614 | 7136 | CCCCCCCCCCCCCCCC(=O)OC/C=C(C)/C=C/C=C(C)/C=C/C1=C(C)CCCC1(C)C [Vit. A Palmitate, reference compound] | Estimated grams of ingredient exuded (theoretical amount from ratios of ingredients in the gel disc formula) ([1]; Sample aa, Test Disc 1, Exposed 1 hours): 0.0022 grams; Estimated grams of ingredient exuded (theoretical amount from ratios of ingredients in the gel disc formula) ([1]; Sample bb, Test Disc 1 Replicate, Exposed 1 hours): 0.0031 grams; Estimated grams of ingredient exuded (theoretical amount from ratios of ingredients in the gel disc formula) ([1]; Sample cc, Test Disc 2, Exposed 3 hours): 0.0024 grams; Estimated grams of ingredient exuded (theoretical amount from ratios of ingredients in the gel disc formula) ([1]; Sample dd, Test Disc 2 Replicate, Exposed 3 hours): 0.0035 grams; Estimated grams of ingredient exuded (theoretical amount from ratios of ingredients in the gel disc formula) ([1]; Sample ee, Test Disc 3, Exposed 18 hours): 0.0062 grams; Estimated grams of ingredient exuded (theoretical amount from ratios of ingredients in the gel disc formula) ([1]; Sample ff, Test Disc 3 Replicate, Exposed 18 hours): 0.0062 grams; Estimated grams of ingredient exuded (theoretical amount from ratios of ingredients in the gel disc formula) ([1]; Sample gg, Test Disc 4, Exposed 18 hours): 0.0064 grams; Estimated grams of ingredient exuded (theoretical amount from ratios of ingredients in the gel disc formula) ([1]; Sample hh, Test Disc 4 Replicate, Exposed 18 hours): 0.0057 grams; Estimated grams of ingredient exuded (theoretical amount from ratios of ingredients in the gel disc formula) ([1]; Sample ii, Test Disc 5, Exposed 18 hours): 0.0051 grams; Estimated grams of ingredient exuded (theoretical amount from ratios of ingredients in the gel disc formula) ([1]; Sample kk, Test Disc 5 Replicate, Exposed 18 hours): 0.0051 grams; Quantitative Analysis - Islechem u-gram extraction [2, 23]: 740 u-gram; Quantitative Analysis - Islechem u-gram extraction [2, 24]: 1020 u-gram; Quantitative Analysis - Islechem u-gram extraction [2, 25]: 860 u-gram; Quantitative Analysis - Islechem u-gram extraction [2, 26]: 1130 u-gram; Quantitative Analysis - Islechem u-gram extraction [2, 27]: 1720 u-gram; Quantitative Analysis - Islechem u-gram extraction [2, 28]: 1640 u-gram; Quantitative Analysis - Islechem u-gram extraction [2, 29]: 1480 u-gram; Quantitative Analysis - Islechem u-gram extraction [2, 30]: 1150 u-gram; Quantitative Analysis - Islechem u-gram extraction [2, 31]: 806 u-gram; Quantitative Analysis - Islechem u-gram extraction [2, 32]: 1340 u-gram
2 | 372 | 793 | 4765 | 6600 | 4035 | 372 | 1165 | 5929 | 12529 | 16565 | 705 | 1459 | 5153 | 4976 | 3941 | 705 | 2164 | 7316 | 12293 | 16234 | O=C(O)c1ccccc1O [Salicylic Acid, reference compound] | 
3 | 18 | 18 | 25 | 29 | 10 | 18 | 35 | 60 | 89 | 99 | 20 | 24 | 22 | 13 | 20 | 20 | 43 | 65 | 78 | 98 | Ceramide III | Quantitative Analysis - Islechem u-gram extraction [2, 23]: 17 u-gram; Quantitative Analysis - Islechem u-gram extraction [2, 24]: 19 u-gram; Quantitative Analysis - Islechem u-gram extraction [2, 25]: 17 u-gram; Quantitative Analysis - Islechem u-gram extraction [2, 26]: 23 u-gram; Quantitative Analysis - Islechem u-gram extraction [2, 27]: 24 u-gram; Quantitative Analysis - Islechem u-gram extraction [2, 28]: 21 u-gram; Quantitative Analysis - Islechem u-gram extraction [2, 29]: 28 u-gram; Quantitative Analysis - Islechem u-gram extraction [2, 30]: 13 u-gram; Quantitative Analysis - Islechem u-gram extraction [2, 31]: 9.6 u-gram; Quantitative Analysis - Islechem u-gram extraction [2, 32]: 19 u-gram
